According to patent US20150361184A1, “METHODS OF MODULATING DLK STABILITY” (GENENTECH, INC., priority 2013, published 2015):
Peptide text beside a SMILES is read from it. * marks the point of attachment. Cbz = O=C(OCc1ccccc1)*

How the values were obtained:
DLK [1] = assay: DLK expression in stable cell line with dox-inducible DLK construct treated with JNK inhibitors; format: cell-based; settings: inhibitors at 10 μM
Procedure: HEK 293T cells were lysed by incubation on ice for 30 min. in radioimmunoprecipitation assay (RIPA) buffer. […] Unless otherwise noted, all lysis solutions contained Complete protease inhibitor cocktail and PhosSTOP phosphatase inhibitor cocktail (Roche). Protein concentrations of 293T and retina lysates were determined by BCA assay (Pierce). Samples were loaded on NuPAGE 4-12% Bis-Tris gels (Invitrogen) and subjected to standard immunoblotting procedures. Except where noted, gels blotted for DLK were run in MOPS buffer (Invitrogen). […] Blots were visualized with chemiluminescence and exposure to film. For relative protein expression and molecular weight quantifications, blots were also visualized on a Chemidoc (Bio-Rad). Quantifications were performed in ImageLab (Bio-Rad). Protein expression was standardized to a loading control (actin or tubulin). Molecular weight was standardized to Precision Plus Protein WesternC Standards (Bio-Rad).
A stable cell line that expressed DLK in a doxicyclin-inducible fashion was used and cells were treated with two structurally distinct JNK inhibitors (FIG. 4c).

DLK [2] = assay: JNK3 siRNA knockdown in JNK2 knockout DRGs with NGF withdrawal, blot for DLK; format: cell-based, mouse; settings: JNK2 KO embryonic DRGs, compared to control siRNA
Procedure: (§1) Dorsal root ganglia were dissected from E12.5 to E13.5 mouse embryos, trypsinized (except in the case of explants), and cultured in F12 medium containing N3 supplement, 40 mM glucose, and 25 ng/mL NGF on chamber slides coated with poly-d-lysine and laminin (BioCoat, BD). The day after plating, 3 μM arabinofuranoside (AraC, Sigma) was added to the medium, removed two days later, and the medium was replaced with N3/F12/NGF without AraC. For NGF withdrawal experiments, after 4 to 5 days in vitro, medium was replaced with medium containing no NGF and 25 μg/mL anti-NGF antibody (Genentech) for between 1 and 3 hours.
For siRNA experiments, dissociated DRGs were transfected using the Amaxa nucleofection system (Lonza). JNK3 siRNA (sense 5′-ACATCGTAGTCAAGTCTGATTT-3′ (SEQ ID NO:10), antisense 5′-ATCAGACTTGACTACGATGTTT (SEQ ID NO:11)) was synthesized at Genentech (Kim, M. J. et al. Neuron 56, 488-502 (2007)). Control siRNA was ON-TARGETplus Non-targeting siRNA #1 from Dharmacon.
DRG cultures were lysed by incubation on ice for 30 min. in buffer containing 50 mM Tris pH 7.5, 150 mM NaCl, 5 mM EDTA, and 0.1% Triton X-100. […] Protein concentrations of 293T and retina lysates were determined by BCA assay (Pierce). […] For relative protein expression and molecular weight quantifications, blots were also visualized on a Chemidoc (Bio-Rad). Quantifications were performed in ImageLab (Bio-Rad). […]

murine DLK = assay: SILAC mass spectrometry of DLK phosphorylation sites in 293T cells expressing Flag-tagged DLK; format: cell-based, mouse; settings: WT DLK, okadaic acid 200 nM
Procedure: To identify functionally relevant phosphorylation sites on DLK, mass spectrometry in conjunction with stable isotope labeling by amino acids in cell culture (SILAC) was used. For these studies, 293T cells expressing FLAG-tagged DLK were cultured in SILAC media containing isotopically enriched (Heavy) versions of lysine (^13C6^15N2) and arginine (^13C6^15N4) or their unlabeled counterparts (Light). Four paired conditions (Light vs. Heavy) were established to dissect the effects of JNK and DLK activities on the overall abundance of DLK and the extent of DLK phosphorylation: 1) Wild-type (WT) DLK vs. DLK^S302A, 2) DLK^S302A vs. DLK^S302A co-expressed with a constitutively active JNK construct (Lei, K. et al. Molecular and cellular biology 22, 4929-4942 (2002)), 3) WT DLK vs. WT DLK with JNK inhibitor, and 4) WT DLK vs. WT DLK with okadaic acid (FIG. 5a).

DLK [3] = assay: Western blot for DLK in unstressed embryonic DRG neurons cultured with NGF, treated for three hours; format: cell-based, mouse; settings: DRGs +NGF, 3 hours; OA 200 nM, MG132 30 μM
Procedure: as §1
DRG cultures were lysed by incubation on ice for 30 min. in buffer containing 50 mM Tris pH 7.5, 150 mM NaCl, 5 mM EDTA, and 0.1% Triton X-100. HEK 293T cells were lysed by incubation on ice for 30 min. in radioimmunoprecipitation assay (RIPA) buffer. Retina and nerve tissue samples were lysed in RIPA buffer using a TissueLyser (Qiagen) with a 3 mm tungsten carbide bead (Qiagen) for 6 min. Unless otherwise noted, all lysis solutions contained Complete protease inhibitor cocktail and PhosSTOP phosphatase inhibitor cocktail (Roche). Protein concentrations of 293T and retina lysates were determined by BCA assay (Pierce). Samples were loaded on NuPAGE 4-12% Bis-Tris gels (Invitrogen) and subjected to standard immunoblotting procedures. Except where noted, gels blotted for DLK were run in MOPS buffer (Invitrogen). Due to the large size of Phr1, samples blotted for Phr1 were run on 3-8% Tris-Acetate gels (Invitrogen). Blots were visualized with chemiluminescence and exposure to film. For relative protein expression and molecular weight quantifications, blots were also visualized on a Chemidoc (Bio-Rad). Quantifications were performed in ImageLab (Bio-Rad). Protein expression was standardized to a loading control (actin or tubulin). Molecular weight was standardized to Precision Plus Protein WesternC Standards (Bio-Rad).

Compound: JNK Inhibitor VII (TAT-TI-JIP153-163) [JNK7]
- DLK expression (levels of DLK protein) (DLK [1]): reduces DLK expression

Compound: JNK3 siRNA: siRNA, sense 5′-ACATCGTAGTCAAGTCTGATTT-3′ (SEQ ID NO:10), antisense SEQ ID NO:11, synthesized at Genentech (sense ACATCGTAGTCAAGTCTGATTT; antisense ATCAGACTTGACTACGATGTTT; listed as DNA, chemistry not given here)
- increase in DLK quantity with NGF withdrawal (DLK [2]): attenuated the increase in DLK

Compound: C=C1[C@@H](O)[C@@H]2O[C@]3(CC[C@H](/C=C/[C@@H](C)[C@@H]4CC(C)=C[C@@]5(O[C@H](C[C@@](C)(O)C(=O)O)CC[C@H]5O)O4)O3)CC[C@H]2O[C@@H]1[C@@H](O)C[C@H](C)[C@H]1O[C@@]2(CCCCO2)CC[C@H]1C [okadaic acid]
- fold change in phosphorylation of T43, okadaic-acid-treated vs untreated cells expressing DLK (murine DLK): 7.78 fold
- apparent molecular weight / phosphorylation of DLK (DLK [3]): sufficient to increase both the apparent molecular weight and total levels of DLK
- total levels of DLK protein (DLK [3]): sufficient to increase both the apparent molecular weight and total levels of DLK

Compound: CC(C)C[C@@H](C=O)NC(=O)[C@H](CC(C)C)NC(=O)[C@H](CC(C)C)NC(=O)OCc1ccccc1 [MG132] (Cbz-Leu-Leu-Leu-aldehyde)
- apparent molecular weight / phosphorylation of DLK (DLK [3]): without an increase in DLK phosphorylation
- total levels of DLK protein (DLK [3]): produced an increase in DLK levels
